# Measurements taken from US12648928B2, “Intervention strategy for prevention or treatment of diabetes mellitus, autoimmune disease, inflammatory disease or cardiovascular disease” (ACADEMISCH MEDISCH CENTRUM, priority 2020, dated 2026).
# Entries after “also recorded” stand apart in the source; their conditions may differ.
# How the values were obtained:
# NF-κB = NF-κB reporter macrophage luciferase assay (RAW264.7); assay type: cell-based, murine
# Method: NF-κB signaling activation was assessed by luciferase activity assay. RAW264.7 cells stably transfected with the 3×-κB-luc plasmid (DNA construct containing three NF-κB sites from the Ig κ light chain promoter coupled to the gene encoding firefly luciferase) were grown in DMEM medium supplemented with 10% heat-inactivated fetal bovine serum, penicillin (100 U/ml), streptomycin (100 μg/ml), L-glutamine (2 mM). Cells were seeded in F-bottom 96-well […] metabolites at different concentrations (6-BT 0,1-100 μM, LysoPC(20:0) 1-10 μM, 16:0-18:2 PE 1-50 μM, MA-GPC 1-100 μM). Afterwards, cells were lysed with 25 μl/well 1×passive lysis buffer and firefly luciferase activity was measured by LUCIFERASE® Assay System (Promega, E1500) on a GLOMAX @-Multi Detection System (Promega).
# murine CD4+ T cells = assay: In vitro CD4+ T cell activation assay (anti-CD3/anti-CD28); assay type: cell-based
# Method: Primary CD4+ T cells were freshly isolated by negative selection from spleens of C57/B16 mice (N=3 per experiment). Briefly, spleens were smashed in a culture dish and passed twice through a strainer (70 μm and 40 μm, respectively) to obtain a single-cell suspension.
# Using the negative selection (CD4+ T Cell Isolation kit, Miltenyi Biotec, #130-10-454). Non-CD4 T cells were depleted by retaining them in LS magnetizing column (Miltenyi Biotec).
# Isolated CD4 T cells were cultured in 96-well plates (1×10^5 per well) in RPMI1640 medium supplemented with 10% fetal bovine serum, 100 U/ml penicillin, 100 μg/ml streptomycin, 2 mM L-glutamine. Treatment with the metabolites 6-BT (1/10 μM), LysoPC(20:0) (10/50 μM) or MA-GPC (10/50/100 μM) and activation with 2.5 μg/ml soluble anti-CD3 (145-2C11, eBioscience) and 1 μg/ml soluble anti-CD28 (37.51, eBioscience) antibodies started immediately after seeding in 200 i/well complete RPMI1640 media for a 24-hour period, at the end of which supernatant was harvested and stored at −80° C.
# Specific ELISAs (R&D Systems) were utilized to measure the concentration of TNFα, IFNβ, and IFNγ in cell supernatant of murine monocytes, macrophages ad T cells, respectively, according to the manufacturer's instructions. The concentration of insulin after 24-hour treatment with metabolites or after GSIS were determined using Rat insulin ELISA (Mercodia) according to the manufacturer's instructions. GSIS was calculated by subtracting the concentration of insulin at 1 mM glucose to the insulin rate at 22 mM glucose.
# Particularly in the context of autoimmune diabetes, the activity of T cells is driving disease onset and progression. […] To mimic antigen presentation, murine CD4 T cells (isolated from spleens; Uchimura T., The Innate Immune Sensor NLRC3 Acts as a Rheostat that Fine-Tunes T Cell Responses in Infection and Autoimmunity. Immunity 2019) were activated by monoclonal antibodies against CD3 and CD28 (2.5 and 1 μg/ml, respectively).
# murine CD4 T cells = assay: Seahorse XF mitochondrial metabolism (OCR), murine CD4 T cells; assay type: cell-based; details: 100 uM; murine CD4 T cells (FIG. 22)
# Method: Finally, it was uncovered that 6-BT also impacts the intracellular metabolism.
# OCR=oxygen consumption rate, used as a proxy of cellular utilization of mitochondrial oxidative phosphorylation. OCR was measured using a Seahorse XF Analyzer Uchimura T., The Innate Immune Sensor NLRC3 Acts as a Rheostat that Fine-Tunes T Cell Responses in Infection and Autoimmunity. Immunity 2019; Chou, AIM2 in regulatory T cells restrains autoimmune diseases, Nature 2021.
# murine DC = assay: In vitro stimulation of murine dendritic cells, cytokine secretion; assay type: cell-based; details: GM-CSF differentiated DC
# Method: Bone marrow-derived macrophages (BMDM) and DC (BMDC) were obtained by differentiating freshly isolated BM cells from femur and tibia bones (as above described) of C57/B16 mice (N=3 per experiment). For BMDM, BM cells were seeded at 3×10^6 cells per 10 cm dish and cultured for 7 days in 12 ml RPMI1640 medium with 20% fetal bovine serum, 30% L-929 cell conditioned media, as source of murine macrophage colony-stimulating factor (M-CSF). For BMDC, BM cells were seeded at 0.5×10^6/ml cells in 25 ml in 10 cm dishes and cultured for 7 days in presence of GM-CSF in 5% FBS-RPMI1640 medium. After differentiation, BMDM/DCs were harvested, counted and seeded at a density of 1×10^5 cells per well in a F-bottom 96-well plate and left to adhere for 20 hours before experiments were performed. […]
# Specific ELISAs (R&D Systems) were utilized to measure the concentration of TNFα, IFNβ, and IFNγ in cell supernatant of murine monocytes, macrophages ad T cells, respectively, according to the manufacturer's instructions. The concentration of insulin after 24-hour treatment with metabolites or after GSIS were determined using Rat insulin ELISA (Mercodia) according to the manufacturer's instructions. GSIS was calculated by subtracting the concentration of insulin at 1 mM glucose to the insulin rate at 22 mM glucose. […]
# NF-kB pathway = assay: Phosphorylated p65 subunit after PMA/ionomycin activation, murine CD4 T cells; assay type: cell-based; details: PMA 50 μg/ml and ionomycin 1 μg/ml, 5-10 minutes after activation (FIG. 18)
# Method: Seeking for the molecular mechanism(s) underlying 6-BT actions, 6-BT impact on the activation of the NF-kB pathway, a central pathway in all inflammatory diseases (beyond autoimmunity) was checked first. […] Upon T cell activation with PMA ([…]) and ionomycin (1 μg/ml), 6-BT could inhibit, at very early time-points (5-10 minutes after activation), the NF-kB signaling. This effect was found in both murine and human (Jurkat cells) CD4 T cells.
# [1] = system: pro-inflammatory M1 macrophages; assay: Seahorse XF intracellular metabolism, M1 macrophages; assay type: cell-based; details: M1 macrophages differentiated in presence of LPS and IFNgamma (FIG. 23)
# From the text: Intracellular metabolism measured using a Seahorse XF Analyzer, Uchimura T., The Innate Immune Sensor NLRC3 Acts as a Rheostat that Fine-Tunes T Cell Responses in Infection and Autoimmunity. Immunity 2019; Chou, AIM2 in regulatory T cells restrains autoimmune diseases, nature 2021.
smiles,measurement,setting,value
"N[C@@H](Cc1c[nH]c2cc(Br)ccc12)C(=O)O [6-BT, 6-bromotryptophan]",NFκB pathway activation in macrophages,"NF-κB; RAW264.7 3x-κB-luc, LPS 10/100 ng/ml 2 hours, different doses (FIG. 7)",can inhibit NFκB pathway activation
same,transcriptional activity of the NFkB complex,"NF-κB; RAW264.7 NFkB luciferase reporter, overnight exposure 10-200 μM, 2 hours LPS (10 μg/ml) (FIG. 19)",inhibits the transcriptional activity of the NFkB complex in a dose-dependent manner
same,production of the Th1 cytokine IFNgamma,"murine CD4+ T cells; CD4 T cells from spleens, anti-CD3 2.5 μg/ml and anti-CD28 1 μg/ml (FIGS. 16, 20)",significantly reduced; also recorded: exerted inhibitory effect
same,Th1 responses in CD4 T cells,"murine CD4+ T cells; anti-CD3 & anti-CD28 mAbs, 24 hours (FIG. 11)",dampen Th1 responses
same,mitochondrial metabolism (OCR),murine CD4 T cells,promotes the mitochondrial metabolism
same,secretion of IFNbeta by DC,murine DC; TLR3 activation with 10 μg/ml poly(I.C) (FIG. 15),inhibits the secretion
same,secretion of TNFα by DC,murine DC; TLR4 activation with 100 μg/ml LPS (FIG. 15),inhibits the secretion
same,NF-kB signaling (phosphorylated p65 subunit),NF-kB pathway,could inhibit
same,glycolytic flux,[1],without affecting the glycolytic flux
same,mitochondrial metabolism,[1],could enhance the mitochondrial metabolism
